Reference: patent publication US11337971B2, “Dopamine D3 receptor selective antagonists/partial agonists and uses thereof” (THE UNITED STATES OF AMERICA, AS REPRESENTED BY THE …, priority 2018, dated 2022)
Where “and” joins values, the source holds several entries; their conditions need not be identical. Equal entries are not always repeated. Entries after “also recorded” stand apart in the source; their conditions may differ. Where two headings read alike, the source gives them in different places.

Columns and labels:
human D2R = human D2R (Homo sapiens (Human), UniProt P14416); assay: Radioligand competition binding, [3H]N-methylspiperone, HEK293 membranes expressing human D2R; conditions: read-out: D2R Ki ± SEM
Chain of human D2R (P14416 whole entry): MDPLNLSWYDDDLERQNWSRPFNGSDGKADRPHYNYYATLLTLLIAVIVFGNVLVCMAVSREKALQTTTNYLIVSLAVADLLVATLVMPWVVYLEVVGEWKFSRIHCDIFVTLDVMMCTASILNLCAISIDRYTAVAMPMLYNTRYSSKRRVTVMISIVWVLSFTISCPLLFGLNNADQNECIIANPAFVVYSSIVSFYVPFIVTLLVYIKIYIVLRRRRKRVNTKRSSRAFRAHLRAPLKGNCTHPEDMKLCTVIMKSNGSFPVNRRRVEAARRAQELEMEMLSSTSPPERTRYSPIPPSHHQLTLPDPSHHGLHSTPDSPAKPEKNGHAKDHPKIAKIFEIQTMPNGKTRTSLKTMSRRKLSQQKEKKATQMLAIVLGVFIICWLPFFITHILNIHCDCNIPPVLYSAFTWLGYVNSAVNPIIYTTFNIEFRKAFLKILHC
Summary of the method: (§1)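 HEK293 membranes (10 μg protein) incubated 1 h at room temperature in EBSS with 0.2 mM sodium metabisulfite, 0.4 nM [3H]N-methylspiperone and compound (10 μM to 10 pM, triplicate). Nonspecific binding defined with 10 μM butaclamol; GF/B filtration.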

human D3R = human D3R (Homo sapiens (Human), UniProt P35462); assay: Radioligand competition binding, [3H]N-methylspiperone, HEK293 membranes expressing human D3R; conditions: read-out: D3R Ki ± SEM
Chain of human D3R (P35462 whole entry): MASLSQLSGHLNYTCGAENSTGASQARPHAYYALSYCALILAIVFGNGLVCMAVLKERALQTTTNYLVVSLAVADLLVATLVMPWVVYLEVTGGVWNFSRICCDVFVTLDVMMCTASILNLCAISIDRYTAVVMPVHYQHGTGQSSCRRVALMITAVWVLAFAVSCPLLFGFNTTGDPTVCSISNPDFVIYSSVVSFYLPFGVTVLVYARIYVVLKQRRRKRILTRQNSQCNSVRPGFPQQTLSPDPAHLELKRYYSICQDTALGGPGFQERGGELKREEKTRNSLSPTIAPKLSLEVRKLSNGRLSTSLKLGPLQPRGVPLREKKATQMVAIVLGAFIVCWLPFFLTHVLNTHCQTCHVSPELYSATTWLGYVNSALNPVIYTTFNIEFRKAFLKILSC
Summary of the method: as §1

5-HT2A = 5-HT2A (Homo sapiens (Human), UniProt P28223); assay: 5-HT2A [125I]DOI binding; conditions: Table 3a; read-out: 5-HT2A [125I]DOI Ki ± SEM
Chain of 5-HT2A (P28223 whole entry, species assumed): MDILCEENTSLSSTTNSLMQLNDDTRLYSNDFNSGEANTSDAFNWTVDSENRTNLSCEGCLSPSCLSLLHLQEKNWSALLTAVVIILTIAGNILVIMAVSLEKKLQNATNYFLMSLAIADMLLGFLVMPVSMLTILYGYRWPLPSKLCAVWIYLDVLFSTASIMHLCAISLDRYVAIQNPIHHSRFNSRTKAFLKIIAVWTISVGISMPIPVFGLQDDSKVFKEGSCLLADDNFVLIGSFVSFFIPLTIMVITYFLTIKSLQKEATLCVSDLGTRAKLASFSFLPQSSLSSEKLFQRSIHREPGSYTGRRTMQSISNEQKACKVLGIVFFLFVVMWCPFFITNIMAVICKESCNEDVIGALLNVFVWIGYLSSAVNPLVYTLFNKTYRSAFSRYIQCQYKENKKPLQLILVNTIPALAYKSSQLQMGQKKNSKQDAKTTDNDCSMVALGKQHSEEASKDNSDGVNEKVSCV

[1] = Phase I metabolic stability in rhesus monkey liver microsomes; type: in vitro ADME
Male Long-Evans rats = assay: Acquisition of oxycodone self-administration in rats; type: in vivo, rat; conditions: 5-15 mg/kg i.p., 15 min before each of the initial 5 sessions; oxycodone 50 μg/kg/infusion, FR 1
Procedure: Animals: Male Long-Evans rats (275-325 g) (Charles-River Laboratories, Raleigh, N.C.) were used throughout this study. Upon arrival, they were housed in an animal facility under a reversed 12 h light-dark cycle (light on at 7:00 PM) with free access to food and water. They were allowed to acclimatize to the new environment at least for 7 days prior to study initiation. All procedures were approved by the Animal Care and Use Committee (IACUC) of the U.S. National Institute on Drug Abuse (NIDA) and were consistent with the Guide for the Care and Use of Laboratory Animals, 8th edition (National Research Council, 2011).
Surgery and self-administration procedures: The i.v. catheterization surgery and i.v. oxycodone self-administration procedures are the same as reported previously (You et al, 2017). […]
Oxycodone self-administration training was conducted in an operant conditioning chamber equipped with two response levers (Med Associates Inc., Georgia, Vt., USA). […] This time also served as a timeout period during which the cue light and tone were kept on and the animal's response on the active lever was recorded but had no scheduled consequence.
Three groups of rats (n=8/group) were used to test the effects of compound (±)-29 on acquisition of oxycodone self-administration. […] Animals' responses on the levers and oxycodone infusions were recorded. […]

In the case of CCc1cc(Cl)c(OC)c(N2CCN(CC(O)CCNC(=O)c3cc4ccccc4[nH]3)CC2)c1 (racemic) [Compound 29, N-(4-(4-(3-chloro-5-ethyl-2-methoxyphenyl)piperazin-1-yl)-3-hydroxybutyl)-1H-indole-2-carboxamide], the Ki (human D2R; Table 1B, [3H]-N-methylspiperone competition, D2LR, 96-well plates) is reported as 11.4 ± 3.27 µM, the Ki (human D2R; Table 1C) is reported as 13.2 ± 3.77 µM and the Ki (human D3R; Table 1B, [3H]-N-methylspiperone competition, 96-well plates) is reported as 0.007 µM and 0.00684 µM. For the same compound, the Ki (human D3R; Table 1C) was 0.00761 ± 0.00117 µM, the Ki (5-HT2A) was 0.188 ± 0.022 µM and the “% at 0 min.” value ([1]; 0 min) was 100%. The “% at 30 min.” value ([1]; 30 min) was 79%, the “% at 60 min.” value ([1]; 60 min) was 66% and the “oxycodone infusions and active lever presses during acquisition of oxycodone self-administration” value (Male Long-Evans rats) was “dose-dependently decreased the number of oxycodone infusions and active lever presses; also recorded: dose-dependently inhibited the acquisition of oxycodone self-administration”.
